According to patent US9700539B2, “Therapeutic application of (Boc)2-creatine” (UNIVERSITA' DEGLI STUDI DI GENOVA, priority 2013, dated 2017):
One block for each compound: values may come before it.

Tests used:
creatine kinase enzyme [1] = details: literature; cited from earlier work
creatine kinase enzyme [2] = assay: Creatine kinase activity by the coupled enzymatic method (pyruvate kinase/lactate dehydrogenase, NADH at 340 nm); type: biochemical; details: 2 mM creatine
Description: The activity of the creatine kinase enzyme was measured by the enzymatic coupling method (Bergmeyer 1974). In this method, the ATP hydrolysis is coupled with the NADH oxidation, which is monitored, by means of a spectrophotometer, by the decrease in absorbance at 340 nm (ε340=6.22 mM^−1 cm^−1).
The dosage of the creatine kinase was carried out with the spectrophotometer at 340 nm, following the oxidation of the pyridine coenzyme NADH, which is expressed as a decrease in the absorbance. To be able to carry out the dosage, the reaction of the creatine kinase was combined with two other enzymatic reactions catalyzed respectively by the pyruvate kinase and by the lactate dehydrogenase (Bergmeyer 1974). This method, defined as the coupled method, is necessary because both the substrata and the products of the creatine kinase are not directly visible to the spectrophotometer. In particular, the dosage solution contained the following compounds: 100 mM Tris HCl, pH 7.5, 2 mM MgCl2, 75 mM KCl, 2 mM ATP, 0.5 mM phosphoenolpyruvate, 0.16 mM NADH, 10 IU of pyruvate kinase and of lactate dehydrogenase, in a final volume of 1 ml. The reaction begins by the addition of 2 mM of creatine. The dosage is carried out continuously, i.e. the enzyme activity is followed in real time during the development of the reaction. The dosage trend is monitored by a register connected to the spectrophotometer. The reactions take place in the cuvette, as illustrated in FIG. 1.
To verify the inhibiting effect of (Boc)2-creatine, concentrations between 0.25 and 2 mM were added to the dosage solution, before the addition of the creatine.
To identify the type of inhibition, the maximum kinetic speed (Vmax) and the Michaelis Menten constant (Km) were measured. To be able to carry out the experiment, for each concentration of (Boc)2-creatine, the dosage was carried out in the presence of different substratum concentrations (creatine). The data were analyzed with the Lineweaver-Burk double-reciprocal plot.

[3] = tested on: slices of mouse hippocampus; assay: Incubation of mouse hippocampus slices with (Boc)2-creatine; type: cell-based; details: 2 mM, 3 hours at 36° C.
Source text: Of course, high concentrations of (Boc)2-creatine will have a cytotoxic effect. […] Since tumor development is due to an uncontrolled cellular progression, a molecule which can control the main source of cell energy gives a valid means of controlling cell proliferation.

[4] = tested on: tumor cell lines that express a high level of creatine kinase; details: literature; cited from earlier work

SMILES: CCCCCC(CCCC)=C([Te]c1ccccc1)C(=O)c1ccccc1 [3-butyl-1-phenyl-2-(phenyltelluro)oct-en-1-one]
type of inhibition of creatine kinase (creatine kinase enzyme [1]): competitive inhibitor

inhibition of the creatine kinase (creatine kinase enzyme [2]; 0.25 mM (Boc)2-creatine): 21%
inhibition of the creatine kinase (creatine kinase enzyme [2]; 0.5 mM (Boc)2-creatine): 39%
inhibition of the creatine kinase (creatine kinase enzyme [2]; 0.75 mM (Boc)2-creatine): 75%
maximum inhibition of the creatine kinase (creatine kinase enzyme [2]; 1 mM (Boc)2-creatine): 95%
SMILES: CN(CC(=O)O)C(=NC(=O)OC(C)(C)C)NC(=O)OC(C)(C)C [(Boc)2-creatine]
cytotoxic effect on hippocampus slices (vital signs) [3]: show no vital signs

SMILES: NC(=O)CI [Iodoacetamide]
type of inhibition of creatine kinase (creatine kinase enzyme [1]): complete and irreversible inhibition

SMILES: N=C1NCCN1CC(=O)O [cyclocreatine, 1-carboxymethyl-2-iminoimidazolidine]
inhibition of tumor cell lines [4]: suitable for inhibiting tumor cell lines that express a high level of creatine kinase
